# According to patent publication US6284799A, “Cancer treatment” (priority 1996, dated 2001):
# Read-outs that look alike come from different tables or passages of the source.
# Legend:
# [1] = system: concanavalin A-stimulated normal lymphocytes; experiment: proliferation of concanavalin A-stimulated normal lymphocytes; type: cell-based
# [2] = system: C-3 fibrosarcoma cells; experiment: tumor promotion in mice injected with C-3 fibrosarcoma cells; type: in vivo, C3H mice; details: for tumor growth: C-3 fibrosarcoma, FIG. 7, FIG. 9; for animals with tumors by day 5: n=10 per group, no controls had tumors
# Text: The experiments were blinded so that the individual measuring the first appearance of palpable tumor was unaware of the treatment group (saline control vs antidepressant drug; n=10 in each group),
# [3] = system: HIC; experiment: inhibition of histamine binding to HIC in microsomes; design: species or system rat
# [4] = system: phorbol myristate acetate (PMA)-induced platelet aggregation; experiment: PMA-induced platelet aggregation; type: cell-based; details: for IC50: Platelet, read-out: IC50, antagonism of PMA-induced platelet aggregation
# [5] = biological target: ^3 H-DPPE binding (HIC) in rat liver microsomes; experiment: competition for 3H-DPPE binding in liver microsomes
# [6] = system: HIC; experiment: competition for 3H-histamine binding to HIC in brain membranes; design: species or system rat; details: for Ki: rat cortical membranes
# [7] = system: MCF-7 human breast cancer cells; details: MCF7, 168 h, read-out: IC50 value, inhibit/kill growth of MCF-7 cells
# [8] = system: L5178Y lymphoma cells; experiment: tumor-promoting effect in DBA/2 mice inoculated subcutaneously with L5178Y lymphoma cells; type: in vivo
# Text: A second group of 7 tumor cell-inoculated mice served as controls (saline injections, once daily×1). By day 14, 7/7 DPPE treated animals had palpable tumors as compared to 4/7 controls. At the end of 4 weeks, 6/7 controls had tumors with an aggregate surface area of 14.5 cm^2 (mean=2.1±0.8 cm^2 /animal), while 7/7 DPPE-treated animals had tumors with an aggregate surface area of 38.4 cm^2 (mean=5.5±0.7 cm^2 /animal). Thus, the tumor burden of DPPE-treatedanimals was approximately 2.5-fold greater than that of controls.
# [9] = system: PMA-induced inflammation in skin; experiment: PMA-induced skin inflammation in DBA/2 mice; type: in vivo
# Description: To investigate any effect of DPPE to increase PMA-induced inflammation in the same strain of mice (DBA/2), groups of 3 animals were shaved over the back and 48 hours later received a single topical application of […] PMA in acetone. The PMA-treated mice then received either saline (control) or DPPE (4 or 32 mg/kg at time 0 and 24 hours). Three animals painted with acetone served as vehicle controls. Forty-eight hours later, the various groups were sacrificed by CO2 asphyxiation, the skin carefully excised, pinned to paper strips to prevent, wrinkling, and immersed in formaldehyde. H and E-stained sections of skin were assessed for degree of inflammation.
# Indeed, since tumor promotion requires the presence of inflammatory response, and can be blocked by agents which inhibit inflammation by definition, DPPE functions as a co-promoter with PMA.
# [10] = clinically relevant doses to enhance chemotherapy, about 0.2-12 mg/kg; cited from earlier work
# [11] = system: rat uterus; details: cited from earlier work
# [12] = 1 mg/kg s.c. once daily x3, end of 4 weeks
structure (smiles),measurement,setting,value
CC(C)NC[C@H](O)COc1cccc2ccccc12 (racemic) [propanolol],inhibition of lymphocyte proliferation / mitogenesis,[1],inhibits normal lymphocyte mitogenesis
same,tumor weight on Day 23,"[2]; C-3 fibrosarcoma murine model, FIG. 7",significantly increased tumor weight
COc1ccc(CCN2CCC(Nc3nc4ccccc4n3Cc3ccc(F)cc3)CC2)cc1 [Astemizole],inhibition of lymphocyte proliferation / mitogenesis,[1],potent to inhibit
same,tumor growth,[2],potently stimulate the growth
same,inhibition of histamine binding to HIC,[3],potent to inhibit histamine binding
"CCN(CC)CCOc1ccc(C(=O)c2ccc(F)cc2)cc1 [DFPE, N,N=diethyl-2-[4-(4'-fluorophenone)phenoxy] ethanamine]",potency relative to DPPE in antagonizing PMA-induced platelet aggregation,[4],approximately four times more potent
same,IC50,[4],20 µM
same,Ki,"[5]; rat liver microsomes, read-out: KI value, competition for [^3 H] DPPE binding",~0.07 µM
same,potency relative to DPPE in inhibiting histamine binding at HIC,[6]; brain membranes,approximately three times more potent
same,potency relative to DPPE in HIC binding competition assays,[6]; inhibiting normal cell proliferation and promoting malignant cell proliferation,two to four times that of DPPE
same,Ki,[6],0.3 µM
same,IC50,[7],3 µM
"CCN(CC)CCOc1ccc(Cc2ccccc2)cc1 [DPPE, N,N-diethyl-2-[4-(phenylmethyl)-phenoxy] ethanamine]",inhibition of lymphocyte proliferation / mitogenesis,[1],inhibit
same,IC50,[4],80 µM
same,Kd,[5]; ^3 H-DPPE binding in liver microsomes,0.065 µM
same,Ki,[6],0.9 µM
same,animals with palpable tumors by day 14,"[8]; 1 mg/kg (4 mg/M^2) s.c. once daily x3, day 14, n=7",7/7
same,animals with tumors at the end of 4 weeks,"[8]; 1 mg/kg s.c. once daily x3, 4 weeks, n=7",7/7
same,aggregate tumor surface area,[8]; [12],38.4 cm^2
same,mean tumor surface area per animal,[8]; [12],5.5±0.7 cm^2 /animal
same,tumor burden relative to controls,"[8]; end of 4 weeks, versus saline controls",approximately 2.5 fold
same,IC50,[7],6.5 µM
same,"inflammatory response to PMA, high dose",[9]; 32 mg/kg (128 mg/M^2),most intense inflammatory response
same,mitotic activity in the epithelial layer,"[9]; 32 mg/kg, versus PMA and saline-treated groups",increased mitotic activity
same,inflammatory response to PMA,"[9]; 4 or 32 mg/kg at time 0 and 24 hours, skin assessed at 48 hours, versus saline or acetone controls",significantly greater inflammatory response
same,serious toxic effects in humans,[10],does not cause serious toxic effects
same,antiestrogenic activity in vivo,[11],antiestrogenic in vivo
same,effect on tamoxifen action in the rat uterus in vivo,[11],augment the effects of tamoxifen
CN(C)CCC=C1c2ccccc2CCc2ccccc21 [amitriptyline],IC50,"[1]; Lymphocyte, in the absence of cytotoxicity, FIG. 5, read-out: IC50, inhibition of proliferation",10 to 20 µM
same,animals with tumors by day 5,[2],4/10
same,Ki,"[5]; liver microsomes, FIG. 2, read-out: K1 to compete for ^3 H-DPPE binding",10 µM
CNCCC(Oc1ccc(C(F)(F)F)cc1)c1ccccc1 (stereo not shown) [fluoxetine],animals with tumors by day 5,[2],4/10
CCOC(=O)N1CCC(=C2c3ccc(Cl)cc3CCc3cccnc32)CC1 [loratidine],inhibition of lymphocyte proliferation / mitogenesis,[1],inhibited concanavalin A-stimulated mitogenesis
same,tumor growth,[2],potently promoted tumor growth
